According to article PMC6004566 (ACS Medicinal Chemistry Letters, 2018):

How the values were obtained:
[1] = target: T1, NOTUM (Homo sapiens, UniProt Q6P988); assay: Competitive gel-based ABPP; assay type: biochemical; settings: 10 μM, 30 min pretreatment at 37 °C; CM of WT-NOTUM-transfected HEK293T cells
T1 sequence (Q6P988 20-496): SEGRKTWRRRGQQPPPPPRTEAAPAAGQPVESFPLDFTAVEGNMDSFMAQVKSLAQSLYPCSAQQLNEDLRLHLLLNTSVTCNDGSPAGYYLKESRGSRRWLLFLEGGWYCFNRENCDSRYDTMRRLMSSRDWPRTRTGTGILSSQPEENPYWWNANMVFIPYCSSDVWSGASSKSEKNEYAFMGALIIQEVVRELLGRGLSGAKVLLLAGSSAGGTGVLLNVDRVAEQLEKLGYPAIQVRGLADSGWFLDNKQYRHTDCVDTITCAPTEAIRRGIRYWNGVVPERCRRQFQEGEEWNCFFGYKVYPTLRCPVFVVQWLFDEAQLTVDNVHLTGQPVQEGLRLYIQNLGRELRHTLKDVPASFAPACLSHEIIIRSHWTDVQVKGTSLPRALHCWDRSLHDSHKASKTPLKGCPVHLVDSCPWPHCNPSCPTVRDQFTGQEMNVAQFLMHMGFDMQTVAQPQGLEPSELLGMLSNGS

[2] = target: T2, PPT1 (Homo sapiens, UniProt P50897); assay type: cell-based; settings: SW620 cells in situ 2 h; ABC45 probe 1 µM
T2 sequence (P50897 28-306): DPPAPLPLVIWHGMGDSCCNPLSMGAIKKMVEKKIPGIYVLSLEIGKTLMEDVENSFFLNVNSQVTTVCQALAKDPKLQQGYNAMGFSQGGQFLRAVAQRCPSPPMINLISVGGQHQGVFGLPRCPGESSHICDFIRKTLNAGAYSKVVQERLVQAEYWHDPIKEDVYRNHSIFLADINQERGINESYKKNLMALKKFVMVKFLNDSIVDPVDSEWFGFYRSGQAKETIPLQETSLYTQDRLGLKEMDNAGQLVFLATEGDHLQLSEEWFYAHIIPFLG

[3] = test system: serine hydrolases; assay: Competitive gel-based ABPP; assay type: cell-based, human; settings: SW620 soluble and membrane proteomes, in situ 2 h, 37 °C, FP-Rh
[4] = target: T3, ABHD6 (Homo sapiens, UniProt Q9BV23); assay: MS-based ABPP, SW620 cells in situ; assay type: cell-based; settings: 10 µM, Supplementary Figure 3
T3 sequence (Q9BV23 1-337): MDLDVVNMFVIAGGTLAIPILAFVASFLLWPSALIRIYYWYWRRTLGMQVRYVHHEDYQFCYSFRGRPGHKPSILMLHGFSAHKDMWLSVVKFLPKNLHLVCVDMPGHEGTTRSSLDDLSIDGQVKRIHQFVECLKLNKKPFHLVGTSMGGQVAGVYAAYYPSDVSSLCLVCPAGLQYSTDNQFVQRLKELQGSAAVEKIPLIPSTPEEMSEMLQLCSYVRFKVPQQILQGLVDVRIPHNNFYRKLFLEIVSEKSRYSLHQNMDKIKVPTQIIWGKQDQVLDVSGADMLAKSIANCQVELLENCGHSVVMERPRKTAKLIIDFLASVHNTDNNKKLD

[5] = target: T1, NOTUM; assay type: biochemical; settings: SW620 CM; for inhibitory activity for NOTUM: competitive gel-based ABPP
[6] = test system: FP-biotin-enriched proteins of SW620 conditioned media; assay: Quantitative MS-based ABPP of SW620 CM; assay type: biochemical, human; settings: 0.5 and 10 μM; both CM and SW620 in situ treated cells
[7] = target: T1, NOTUM; assay: ABC99yne direct labeling; settings: 0.1 μM probe; CM and cellular lysate of SW620 cells; Rh-N3 click

Structure (SMILES): O=C1C2CN(Cc3ccc(Oc4ccccc4)nc3)CCN2C(=O)N1OC(=O)N1CCOc2ccccc21 (stereo not drawn) [ABC63]
- FP-Rh reactivity with NOTUM [1]: blocked FP-Rh reactivity with NOTUM
- PPT1 inhibition [2]: did not inhibit PPT1 at concentrations up to 10 μM

Structure (SMILES): COc1ccc(N2CCN(C(=O)ON3C(=O)C4CN(Cc5ccc(Cl)cc5)CCN4C3=O)CC2)cc1 (stereo not drawn) [ABC90]
- selectivity across serine hydrolases [3]: only a single major site of ABC90 cross reactivity was observed; a 35 kDa protein that we suspected was ABHD6
- PPT1 inhibition [2]: potent inhibitor of PPT1

Structure (SMILES): O=C(c1ccc(Cl)cc1)N1CCN2C(=O)N(OC(=O)N3CCOc4ccccc43)C(=O)C2C1 (stereo not drawn) [ABC101]
- inhibition of ABHD6 [4]: maintained inhibition of ABHD6
- inhibitory activity for NOTUM [5]: lost inhibitory activity for NOTUM

Structure (SMILES): COc1ccc(N2CCN(C(=O)ON3C(=O)C4CN(Cc5ccc(Br)cc5)CCN4C3=O)CC2)cc1 (stereo not drawn) [ABC28]
- FP-Rh reactivity with NOTUM [1]: blocked FP-Rh reactivity with NOTUM

Structure (SMILES): O=C1C2CN(Cc3ccc(Cl)cc3)CCN2C(=O)N1OC(=O)N1CCOc2ccccc21 (stereo not drawn) [ABC99]
- PPT1 inhibition [2]: did not cross-react
- cross-reactivity with the 64 additional serine hydrolases quantified by MS-ABPP [6]: virtually no cross-reactivity

Structure (SMILES): COc1ccc(N2CCN(C(=O)ON3C(=O)C4CN(Cc5cccc(Cl)c5)CCN4C3=O)CC2)cc1 (stereo not drawn) [ABC91]
- inhibitory activity for NOTUM [5]: completely lost activity

Structure (SMILES): C#CCN1CCN(C(=O)ON2C(=O)C3CN(Cc4ccc(Cl)cc4)CCN3C2=O)c2ccccc21 (stereo not drawn) [ABC99yne]
- direct labeling selectivity [7]: highly selective labeling of NOTUM with no other cross-reactive proteins observed
- IC50 for blockade of FP-Rh reactivity of NOTUM ([5]; 30 min, 37 °C): sub-micromolar
